Data set [1] in a line: refractive index (Na D-line) (dimensionless). As to conditions: 298.15 K; 101.33 kPa; Liquid; Standard Abbe refractometry.
For data set [2] the following is noted: Liquid; for mass density: 298.15 K, 101.33 kPa; for Normal boiling temperature: Ebulliometric method (Recirculating still).

Numbers after ± are expanded uncertainties.

What is called refractive index is a measure of how strongly the sample bends light. A word on the mass density: it is mass per unit of volume. Take `CCC(C)O` (stereo unspecified) [butan-2-ol]: the refractive index in data set [1] amounted to 1.3951 ± 0.0005. Moreover, in data set [2], the mass density came out at 802.35 ± 0.79 kg/m3 and the Normal boiling temperature came out at 99.41 ± 0.3 °C.

For the compound `CCC(C)=O` [butanone], the refractive index in data set [1] turned out to be 1.3761 ± 0.0005. In data set [2], the mass density is reported as 799.62 ± 0.46 kg/m3 and the Normal boiling temperature is 79.53 ± 0.3 °C.

The record behind these values is the NIST ThermoML archive (doi:10.1021/je1004643).
